Literature values, collected in patent US7476665B2, “Benzodiazepine CGRP receptor antagonists” (Merck & Co., Inc., priority 2003, dated 2009).
Like-named read-outs stand apart in the source and are kept apart here. Where no end group is shown, it is not given here.

Key:
facial blood flow [1] = settings: marmoset, electrical stimulation of the trigeminal ganglion (Doods et al. 2000)
middle meningeal artery = settings: rats, electrical stimulation of the dura mater, prior administration (Williamson et al. 1997)
facial blood flow [2] = settings: rat, trigeminal ganglion stimulation (Escott et al. 1995)

NCCCC[C@H](NC(=O)[C@@H](Cc1cc(Br)c(O)c(Br)c1)NC(=O)N1CCC(N2Cc3ccccc3NC2=O)CC1)C(=O)N1CCN(c2ccncc2)CC1 [BIBN4096BS]
effect on increase of facial blood flow (facial blood flow [1]): blocked

CGRP(8-37): a peptide CGRP antagonist (VTHRLAGLLSRSGGVVKNNFVPTNVGSKAF; ends and bridges not checked; UniProt P06881 90-119, looked up, fragment)
effect on increase of middle meningeal artery diameter (middle meningeal artery): blocked
effect on increase of facial blood flow (facial blood flow [2]): inhibited
